Read-outs that look alike come from different tables or passages of the source.
Conditions: for nicotine release (accumulated, of total nicotine): artificial saliva Table 3, pH 5.8, 37° C., flow 4 ml/min
Text: The nicotine extraction and collection procedure include the following steps:
1. Add fluid (140) to the reservoir (120). Fluid (140) is artificial saliva where the extraction is nicotine from a smokeless tobacco product;
2. Set the bath (200) and the heating or cooling element (220) temperature control (230) to the temperature desired as established from the in vivo environment. Where the fluid (140) is artificial saliva and, for the measurement of nicotine in a smokeless tobacco product, set the temperature to 37° C.;
3. Start the fluid pump (180) and set the pump to the desired pump rate.
4. When the temperature and flow rate are stabilized, add the product sample (330) to extraction bottle interior (304) onto the screen mesh (325). Where the product sample is for a smokeless tobacco product sample (330) the product sample (330) is a smokeless tobacco sachet; the product sample (330) is placed onto the screen mesh (325) in alignment with the supply tube (310);
5. The fluid (140) from the supply tube (310) is flowed or dripped onto the product sample (330) producing an extract (1000) from the combination of the fluid (140) and the sample (330) which is drained from the extraction bottle (300) by a collection tube (335) and is then deposited into at least one collection bottle (400) at intervals determined by experimental design. Where the product sample (330) is a smokeless tobacco product sample (330) 1−n collection bottles (400) will used with bottles (400) changed at intervals of 1-5 min based on experimental design;
6. Extract the residual element from the product sample (330) by placing the product sample (330) in solvent effective for the type of product sample (330); where the product sample (330) is a smokeless tobacco product, the solvent in the preferred embodiment is 20 to 50 ml ethanol:5% NaOH mixture (9:1), and extract with ultrasound for 30 min.
7. Measure the target element in the extract (1000) by use of a measuring instrument suitable for the attributes of the target element in the extract (1000); for the preferred embodiment when the target element is nicotine from a smokeless tobacco product the measuring instrument is high-performance liquid chromatography (HPLC); the extract (1000) of nicotine in artificial saliva and the residual nicotine from ethanol NaOH mixture are determined using HPLC in the following conditions: • 1. Chromatograph column is a C18 reverse phase column • 2. Mobile phase is methanol and 20 mmol phosphate buffer (23:77, volume to volume) with 0.2% Triethylamine, pH=6.0 • 3. Flow rate is 1 ml/min • 4. Column temperature is 35° C.
Artificial saliva temperature was maintained at 37° C., pump flow rate 1 ml/min. Artificial saliva was made using the formula in Table 1, with a pH of 6.7. The artificial saliva collection intervals were at 1, 2, 3, 4, 5, 6, 7, 8, 9, 10, 12, 14, 16, 18, 20, 24, 28, 32 minutes after the extraction started.
Artificial saliva temperature was maintained at 37° C., pump flow rate 2 ml/min. Artificial saliva was made using the formula in Table 2, with a pH of 7.0. The artificial saliva collection intervals were at 1, 2, 3, 4, 5, 6, 7, 8, 9, 10, 12, 14, 16, 18, 20, 22, 24, 26, 28, 30 minutes after the extraction start.
Artificial saliva temperature was maintained at 37° C., pump flow rate 4 ml/min. Artificial saliva was made using the formula in Table 3, with a pH of 5.8. The artificial saliva collection intervals were at 2, 4, 6, 7, 8, 10, 12, 14, 16, 18, 20, 24, 28, and 32 minutes after the extraction start.

CN1CCCC1c1cccnc1 (centres unmarked) [nicotine]
nicotine collected (Example 1: 20 to 32 min extraction period, artificial saliva Table 1, pH 6.7, 37° C., flow 1 ml/min): very little
nicotine released from tobacco (accumulated, of total nicotine) (Example 1: after 20 min of extraction, artificial saliva Table 1, pH 6.7, 37° C., flow 1 ml/min): over 90%
average rate of nicotine release (Example 1: first 5 minutes, artificial saliva Table 1, pH 6.7, 37° C., flow 1 ml/min, smokeless tobacco sachet): approximately 10%
average rate of nicotine release (Example 1: from 6 min to 10 min, artificial saliva Table 1, pH 6.7, 37° C., flow 1 ml/min): approximately 4.3%
average rate of nicotine release (Example 1: from 11 min to 20 min, artificial saliva Table 1, pH 6.7, 37° C., flow 1 ml/min): approximately 1%
nicotine collected (Example 2: 20 to 30 min extraction period, artificial saliva Table 2, pH 7.0, 37° C., flow 2 ml/min): very little
nicotine released (of total nicotine) (Example 2: first 5 minutes, artificial saliva Table 2, pH 7.0, 37° C., flow 2 ml/min): 64%
nicotine released from tobacco (accumulated, of total nicotine) (Example 2: first 20 min of extraction, artificial saliva Table 2, pH 7.0, 37° C., flow 2 ml/min): over 95%
nicotine released (additional, of total nicotine) (Example 2: from 6 min to 10 min, artificial saliva Table 2, pH 7.0, 37° C., flow 2 ml/min): 20%
nicotine release (accumulated, of total nicotine) (Example 3: first 6 min): 82%
nicotine release (accumulated, of total nicotine) (Example 3: first 10 min): 92%

From patent publication US9464972B2, “Apparatus and procedure for in vitro measurement of a substance, nicotine, released from a smokeless tobacco product” (priority 2011, dated 2016)
